Converted amounts (≈) assume the structure as drawn. Read-outs that look alike come from different tables or passages of the source. A value given as a limit tells only on which side of the number the result lay.

For orientation: IC50 means the concentration that gives 50% inhibition.

Data set [1] concerns Bovine brain microtubule protein (MTP). Nature of the data set: Tubulin polymerization inhibition assay (turbidimetry). The class given is biochemical. Conditions: 1.5 mg/mL MTP; IC50 calculated only if more than 50% inhibition at 20 µM; read-out: TPI IC50.
For data set [2], the system named is MCF-7 breast adenocarcinoma. As to the kind of experiment: MTT cell antiproliferative assay, MCF-7. The class given is cell-based. Conditions: Homo sapiens, MCF7, 72 h. On the technique in general: Tetrazolium assays rely on reduction of a dye to a coloured formazan, in cell work by metabolically active cells.
Data set [3] deals with HeLa, HT-29 and MCF-7 human tumor cell lines. As to the kind of experiment: Antiproliferative activity over the three human tumor cell lines (MTT). The class given is cell-based. Particulars: Homo sapiens, range over the cell lines, Table S1; read-out: Cytotoxicity range (range of antiproliferative IC50 values).
Data set [4] relates to Bovine brain microtubule protein (MTP). The arrangement: method as in PMID 26092446. Particulars: comparison values in text; read-out: TPI IC50; cited from earlier work.
The test system of data set [5] is HeLa cervix epithelioid carcinoma. Nature of the data set: MTT cell antiproliferative assay, HeLa. Particulars: Homo sapiens, 72 h. The class given is cell-based.
For data set [6], the system named is HT-29 colon adenocarcinoma. Nature of the data set: MTT cell antiproliferative assay, HT-29 (without or with verapamil). In kind it is cell-based, human. Particulars: for improvement of HT-29 IC50 after verapamil treatment: 10 µM verapamil; for IC50: Homo sapiens, HT-29, MTT, 72 h. As for the experimental part:
The in vitro antiproliferative activity of the synthesized compounds was evaluated by a colorimetric reaction, using the MTT reagent. They were tested against three different human tumor cell lines: HeLa cervix epithelioid carcinoma, HT-29 colon adenocarcinoma, and MCF-7 breast adenocarcinoma. […] Moving the alkylamino substituent from a para to a meta position with respect to the bridge results in potency reduction, except for the phenstatin analogue 1f. However, the introduction of a nitrogen atom to form 2-dimethylaminopyridine derivatives entails a loss of activity, both for phenstatin analogues (1b, 2b), while for isocombretastatins, it only involves a 2–3 times potency decrease (3b). For combretastatins, it implies an improvement in the cytotoxicity values down to tenths of nanomolar (8b). […] On the other hand, the best 2-dimethylaminopyridine was combretastatin 8b. All ammonium salts derivatives were not cytotoxic at micromolar concentrations.
As observed in Table 1, there are no significant changes in the IC50 values for most compounds, except for combretastatins 8a and 8i.
Acquired resistance to antitumor drugs is one of the more important problems of chemotherapy, also affecting tubulin-targeting drugs. In order to ascertain the impact of multidrug resistance phenotypes on the action of the compounds, we have measured the cell proliferation inhibitory activity of HT-29 cells in the presence of verapamil, a known P-glycoprotein 1/multidrug resistance protein 1 (MDR1) inhibitor at a concentration of 10 µM, not affecting cell proliferation. […] Except for the combretastatin analogues 8a and 8i, the affected drugs are all pyridine drugs.
HeLa (human cervical carcinoma) and MCF-7 (human breast carcinoma) cell lines were cultured in Dulbecco’s Modified Eagles Medium (DMEM) supplemented with 2 mM L-glutamine (Lonza-Cambrex, Karlskoga, Sweden), 10% (v/v) heat inactivated fetal bovine serum (HIFBS) (Lonza-Cambrex) and 100 μg/mL streptomycin-100 IU/mL penicillin (Lonza-Cambrex) at 37 °C in humidified 95% air and 5% CO2. HT-29 (human colon carcinoma) cells were cultured at 37 °C in complete RPMI 1640 medium containing 2 mM L-glutamine, 10% (v/v) HIFBS and 100 μg/mL streptomycin-100 IU/mL penicillin in humidified 95% air and 5% CO2 atmosphere.
The effect of the different compounds on the proliferation of human cell lines was determined by using the MTT (3-[4,5-dimethylthiazol-2-yl]-2,5-diphenyltetrazolium bromide) reagent (MTT Thiazolyl Blue Tetrazolium Bromide, Sigma-Aldrich, St. Louis, MO, USA) dissolved in PBS 5 mg/mL. Cell viability was evaluated seeding 100 µL of cells in exponential growth phase with appropriate cell line concentration (1.5 × 10^4 HeLa and MCF-7 cells/mL and 3 × 10^4 HT-29 cells/mL) in complete medium in 96-well plates at 37 °C and 5% CO2. After 24 h incubation to allow cells to attach to the plates the ligands were added at different concentrations from 10^−5 to 10^−9 M. The effect on the proliferation was evaluated 72 h post-treatment by adding the MTT reagent (10 µL/well) to a final concentration of 0.5 mg/mL and the plate was further incubated for another 3 h. After this period, the supernatant was removed, the MTT violet crystals formed on the bottom of each well were dissolved in DMSO (100 µL/well) and subsequently, the absorbance of the color complex was read at 570 nm using a multi-well plate reader. Compounds were dissolved in dimethyl sulfoxide (DMSO) and the final solvent concentrations never exceeded 0.5% (v/v). The control wells included treated cells with 0.5% (v/v) DMSO and the positive control. Measurements were performed in triplicate, and each experiment was repeated three times. […] Nonlinear curves fitting the experimental data were carried out for each compound.

In data set [7] the test system is rat primary pancreatic cells. Nature of the data set: Toxicity against rat primary pancreatic cells (MTT). Particulars: 7 h. As to the method: The toxicity of the compounds against rat primary pancreatic cells was evaluated by the MTT protocol (Table 2). […] Sodium taurocholate (NaTc) was also used at high concentrations as a model of acute pancreatitis in vitro.
Rat primary pancreatic cells were isolated as previously described. Afterwards, pancreatic cells were resuspended in Na-HEPES solution (pH 7.4) containing 14 mM glucose, 1% essential amino acid mixture, 1% (w/v) BSA, 0.01% (w/v) STI, 0.5 mM CaCl2 and incubated (5% CO2, at 37 °C) for 7 h in the absence (non-treated control) or the presence of compounds at different concentrations. After the treatment, cells were incubated (5% CO2, at 37 °C) with 0.5 mg/mL MTT for 2 h and the formazan crystals were solubilized with DMSO (v/v). The optical density was read at 570 nm with a reference wavelength of 630 nm. Non-treated cell viability was set as 100%.

A short description of data set [8]: Aqueous solubility determination (shake flask, UV). The class given is physicochemical. Conditions: phosphate buffer, pH 7, aqueous buffer, thermodynamic from solid, phosphate buffer pH 7.0, 48 h stirring, filtered, UV; read-out: Solub. As for the experimental part: One of the expected effects of introducing nitrogen substitutions on combretastatin and isocombretastatin analogues, is an increase in aqueous solubility. Solubility was spectrophotometrically determined in phosphate buffer at pH 7. UV absorbance of soluble compounds was measured after shaking and microfiltration. […] In addition, aqueous solubilities of the corresponding ammonium salts are over 1 mg/mL.
This great improvement is probably due to the symmetry reduction, combined with an increased polarity for 2g.
Compounds were stirred in a solution of phosphate buffer at pH 7.0 (1–2 mg of compound in 300 µL of buffer) during 48 h. After that, the samples were filtered over a […] filter to discard the insoluble residues. In order to determine the maximum wavelength of absorbance for each compound, a scan between 270 and 400 nm was performed. Once the wavelength was selected, a calibration line was performed and the concentration of the stirred and filtered samples was measured.

Turning to `COc1cc(C=Cc2ccc(N(C)C)cc2)cc(OC)c1OC` [Compound 8a, N,N-dimethyl-4-(3,4,5-trimethoxystyryl)aniline], the IC50 in data set [1] was 3400 nM; in data set [2], 273 nM; in data set [3] it was 102 to 503 nM; in data set [4], 3400 nM; in data set [5], 208 nM; in data set [6], 503 nM. Further, the “improvement of HT-29 IC50 after verapamil treatment” value in data set [6] is greater than 2 fold.
Consider `C[C@H](CCC(=O)NCCS(=O)(=O)O)[C@H]1CC[C@H]2[C@@H]3[C@H](O)C[C@@H]4C[C@H](O)CC[C@]4(C)[C@H]3C[C@H](O)[C@]12C` [NaTc, Sodium taurocholate, reference compound], for which, in data set [7] (0.50%), the “live cells with respect to the non-treated control (means ± S.E.M.)” value worked out at 24.83 ± 11.86%.
`COc1cc(C(=O)c2ccnc(N(C)C)c2)cc(OC)c1OC` [Compound 1g, (2-(Dimethylamino)pyridin-4-yl)(3,4,5-trimethoxyphenyl)methanone]: the IC50 is greater than 20000 nM in data set [1]; 223 nM in data set [2]; 223 to 387 nM in data set [3]; 387 nM in data set [5]; 313 nM in data set [6]. Moreover, in data set [8], the solubility at 48 h is 33.8 µg/mL (≈ 107 µM).
For `CC(=O)O[C@H]1C[C@H](O[C@H]2[C@@H](O)C[C@H](O[C@H]3[C@@H](O)C[C@H](O[C@H]4CC[C@@]5(C)[C@H](CC[C@@H]6[C@@H]5C[C@@H](O)[C@]5(C)[C@@H](C7=CC(=O)OC7)CC[C@]65O)C4)O[C@@H]3C)O[C@@H]2C)O[C@H](C)[C@H]1O` [Acetyldigoxin, acetyl-digoxin, reference compound], the “live cells with respect to the non-treated control (means ± S.E.M.)” value in data set [7] (0.05 µM) amounted to 84.41 ± 9.64%.
With `COc1cc([C@@H]2c3cc4c(cc3[C@@H](O[C@@H]3O[C@@H]5CO[C@@H](C)O[C@H]5[C@H](O)[C@H]3O)[C@H]3COC(=O)[C@H]23)OCO4)cc(OC)c1O` [Etoposide, etoposide, reference compound], the “live cells with respect to the non-treated control (means ± S.E.M.)” value in data set [7] (rat, 0.05 µM, pH 7.4) was determined as 89.87 ± 11.80%.
For the compound `COc1ccc(/C=C\c2cc(OC)c(OC)c(OC)c2)cc1O` [CA-4, Combretastatin A4, reference compound], in data set [4], the IC50 is 1000 to 4000 nM.
`C=C(c1ccnc(N2CCCC2)c1)c1cc(OC)c(OC)c(OC)c1` [Compound 3h, 2-(Pyrrolidin-1-yl)-4-(1-(3,4,5-trimethoxyphenyl)vinyl)pyridine]: the IC50 in data set [1] is greater than 20000 nM; in data set [2], 317 nM; in data set [3], 230 to 477 nM; in data set [5], 257 nM; in data set [6] it was 477 nM. In addition, in data set [8], the solubility at 48 h turned out to be 62 µg/mL (≈ 182 µM). Further, in data set [6], the “improvement of HT-29 IC50 after verapamil treatment” value was greater than 2 fold.

(Values after article PMC6930638, “The Masked Polar Group Incorporation (MPGI) Strategy in Drug Design: Effects of Nitrogen Substitutions on Combretastatin and Isocombretastatin Tubulin Inhibitors” (Molecules, 2019).)
